# Results published in ChEMBL document CHEMBL1129054, “Conformationally constrained analogues of diacylglycerol. 13. Protein kinase C ligands based on templates derived from 2,3-dideoxy-L-erythro(threo)-hexono-1,4-lactone and 2-deoxyapiolactone” (J Med Chem, 1996).
# pKi: −log10 of the molar value.
# Biological target: Protein kinase C alpha type (Homo sapiens, UniProt P17252)
# Assay: Displacement of [3H-20] phorbol 12,13-dibutyrate(PDBU) from recombinant Protein kinase C alpha
row,SMILES,pKi
1,CCCCCCCCCCCCCCOC(=O)C[C@]1(CCO)COC(=O)C1,4.98
2,CCCCCCCCCCCCCCOC(=O)C[C@@]1(CCO)COC(=O)C1,4.74
3,CCCCCCCCCCCCCCOC(=O)C[C@@]1(CO)COC(=O)C1,4.77
4,CCCCCCCCCCCCCC(=O)O[C@@H](CO)[C@H]1CCC(=O)O1,4.55
5,CCCCCCCCCCCCCC(=O)O[C@@H](CO)[C@@H]1CCC(=O)O1,5.97
6,"CCCCCCCCCCCCCCOC(=O)CC1(CCO)COC(=O)C1 (single isomer, unassigned)",4.62
